In US20070015827A1, “Methods and compositions for treating ophthalmic conditions via serum retinol, serum retinol binding protein (RBP), and/or serum retinol-RBP modulation” (Sytera, Inc., priority 2005, published 2007):
“Also recorded” adds a separate entry of the source.

Legend:
Apo-RBP = Apo-RBP (Homo sapiens, UniProt P02753); assay: Fluorescence quenching study with Apo-RBP (Example 15); assay type: binding
Protocol: Apo-RBP at 0.5 μM was incubated with 0, 0.25, 0.5, 1 and 2 μM of MPR in PBS at room temperature for 1 hour, respectively. As controls, the same concentration of Apo-RBP was also incubated with 1 μM of HPR or 1 μM of atROL. All mixtures contained 0.2% Ethanol (v/v). The emission spectra were measured between 290 nm to 550 nm with excitation wavelength at 280 nm and 3 nm bandpass.

TTR binding to RBP = TTR binding to RBP (Homo sapiens, UniProt P02753); assay: Size exclusion study of TTR binding to RBP (Example 16); conditions: for binding of ligand-RBP to TTR: 10 μM RBP, 10 μM TTR, room temperature, 1 hour
Protocol: Apo-RBP at 10 μM was incubated with 50 μM of MPR in PBS at room temperature for 1 hour. 10 μM of TTR was then added to the solution, and the mixture was incubated for another hour at room temperature. 50 μl of the sample mixtures with and without TTR addition were analyzed by BioRad Bio-Sil SEC125 Gel Filtration Column (300×7.8 mm). In control experiments, atROL-RBP and atROL-RBP-TTR mixture were analyzed in the same manner.

abca4 null mutant mice = assay: A2E and A2PE-H2 in eyes after chronic treatment (HPLC); assay type: in vivo, mouse; conditions: 13-cis retinoic acid 40 mg/kg, chronic (1 month)
Protocol: Tissue Extraction. Eye samples were thawed on ice in 1 ml of PBS, pH 7.2 and homogenized by hand using a Duall glass-glass homogenizer. The sample was further homogenized following the addition of 1 ml chlorofomm/methanol (2:1, v/v). The sample was transferred to a boroscilicate tube and lipids were extracted into 4 mls of chloroform. The organic extract was washed with 3 mls PBS, pH 7.2 and the samples were then centrifuged at 3,000×g, 10 min. The choloroform phase was decanted and the aqueous phase was re-extracted with another 4 mls of chloroform. Following centrifugation, the chloroform phases were combined and the samples were taken to dryness under nitrogen gas. Samples residues were resuspended in 100 μl hexane and analyzed by HPLC as described below.
HPLC Analysis. Chromatographic separations were achieved on an Agilent Zorbax Rx-Sil Column (5 μm, 4.6×250 mm) using an Agilent 1100 series liquid chromatograph equipped with fluorescence and diode array detectors. The mobile phase (hexane/2-propanol/ethanol/25 mM KH2PO4, pH 7.0/acetic acid; 485/376/100/50/0.275, v/v) was delivered at 1 ml/min. Sample peak identification was made by comparison to retention time and absorbance spectra of authentic standards. Data are reported as peak fluorescence (L.U.) obtained from the fluorescence detector.
We initiated a one-month study to evaluate the effects of HPR on reduction of A2E and A2E precursors in abca4 null mutant mice. HPR was administered in DMSO (20 mg/kg, ip) to abca4 null mutant mice (BL6/129, aged 2 months) daily for a period of 28 days. Control age/strain matched mice received only the DMSO vehicle. Mice were sampled at 0, 14, and 28 days (n=3 per group), the eyes were enucleated and chloroform-soluble constituents (lipids, retinoids and lipid-retinoid conjugates) were extracted. Mice were sacrificed by cervical dislocation, the eyes were enucleated and individually snap frozen in cryo vials. The sample extracts were then analyzed by HPLC with on-line fluorescence detection. Results from this study show remarkable, early reductions in the A2E precursor, A2PE-H2, see FIG. 4a, and subsequent reductions in A2E, see FIG. 4b. […] A similar study may be undertaken to ascertain effects of HPR treatment on the electroretinographic and morphological phenotypes.
ABCA4 null mutant mice were given the indicated dose of HPR in DMSO or DMSO alone daily for 28 days (n=16 mice per treatment group). At study onset, mice in the 2.5 mg/kg group were 2 months of age, mice in the other treatment groups were 3 months of age. At the indicated times, representative mice were taken from each group (n =4) for analysis of A2E precursor compounds (see FIG. 10, A2PE-H2, panels A, C and E) and A2E (see FIG. 10, panels B, D and F). Eyes were enucleated, hemisected and lipid soluble components were extracted from the posterior pole by chloroform/methanol-water phase partitioning. Sample extracts were analyzed by LC. Identity of the eluted compounds was confirmed by UV-vis absorption spectroscopy and co-elution of sample peaks with authentic standards. Note: limitations in appropriately age and strain-matched mice in the 10 mg/kg group prevented analysis at the 14-day interval.
Extraction and Analysis of Retinoids and A2E. Steady-state levels of retinoids and A2E in eyecups of ABCA4−/− mice were determined following daily administration (28 days) of HPR (FIG. 12). Mice were sacrificed, the eyes enucleated, and the posterior portion of each eye was used for extraction of retinoids or A2E. Methodologies used for extraction of retinoids and A2E from eye tissue and HPLC analysis techniques have been described. See, e.g., Mata N L, Weng J, Travis G H. Biosynthesis of a major lipofuscin fluorophore in mice and humans with ABCR-mediated retinal and macular degeneration. Proc Natl Acad Sci USA. 2000; 97:7154-7159; Weng J, et al.; Cell. 1999;98:13-23; Mata N L, et al.; Invest. Ophthalmol. Visual Sci. 2001; 42:1685-1690. […]

[1] = tested on: wild-type and abca4 −/− mice; conditions: mouse, in vivo
Excerpt: Delayed-dark adaptation can be further exacerbated by compounds which reduce the rate of rhodopsin regeneration (e.g., 13-cis retinoic acid). Although compounds such as HPR, which reduce total ocular retinoid levels, may also contribute to delayed-dark adaptation, the effect is less pronounced. This point was illustrated in studies which examined the effects of chronic (1 month) 13-cis retinoic acid or HPR administration on electrophysiology of the retina. […] Following exposure to a light source which bleaches approximately 40% of the visual chromophore, wild-type mice require ˜1 hour to regain dark sensitivity (1.0 value on the y-axis); untreated abca4 −/− mice require ˜3-4 hours. 13-cis retinoic acid treatment prolongs the time required to regain dark sensitivity to several hours. […] This finding is relevant for human patients affected with AMD.
Panels D-F of FIG. 9 are electrophysiological measurements of rod function (panel D), rod and cone function (panel E) and recovery from photobleaching (panel F).

abca4 −/− mice = assay: A2E levels after withdrawal of chronic treatment; assay type: in vivo, mouse
Protocol: Latent Effects of HPR on Arresting A2E Accumulation —One feature identified during the HPR trials was a therapeutic latency effect following withdrawal of HPR. In these studies, chronic treatment of abca4 −/− mice (10 mg HPR/kg, i.p.) was stopped after 28 days. A2E levels were then measured 12, 28 and 42 days following the final HPR dose. […] This effect was not observed in animals treated with 13-cis retinoic acid, a result that may be due to the capacity of RPE cells to adapt to, and maintain, low steady-state retinoid levels. […] These findings indicate that high steady-state levels of competitive inhibitors such as 13-cis retinoic acid must be maintained for therapeutic efficacy.

mice = conditions: cited from earlier work

SMILES | binding to RBP relative to HPR (Apo-RBP) | quenching of RBP fluorescence (Apo-RBP; 0.5 μM Apo-RBP, 0-2 μM MPR, PBS, room temperature, 1 hour) | degree of quenching compared with other RBP ligands (Apo-RBP; controls 1 μM HPR, 1 μM atROL) | MPR concentration at which quenching saturated (Apo-RBP; for 0.5 μM of RBP) [µM] | binding to RBP (360 nm absorbance in RBP elution peak) (TTR binding to RBP; 10 μM Apo-RBP, 50 μM MPR) | binding of ligand-RBP to TTR (TTR binding to RBP) | reduction in A2E (abca4 null mutant mice) [%] | time required to regain dark sensitivity [1] | A2E levels after withdrawal (therapeutic latency effect) (abca4 −/− mice; chronic treatment (HPR 10 mg/kg i.p.) stopped after 28 days, measured 12, 28 and 42 days later) | photoreceptor function and ocular retinoid levels following withdrawal (abca4 −/− mice; mouse, in vivo) | 11-cis retinyl esters (mice; increased 13-cis retinoic acid) | levels of 11-cis retinal (mice; increased doses of 13-cis retinoic acid)
COc1ccc(NC(=O)\C=C(C)/C=C/C=C(C)\C=C\C2=C(C)CCCC2(C)C)cc1 (stereo in doubt) [MPR, N-(4-methoxyphenyl)retinamide] | more weakly | concentration-dependent quenching | smaller than those by atROL and HPR | 1 | RBP binds to MPR | did not bind to TTR; also recorded: inhibits the binding of TTR to RBP | – | – | – | – | – | –
CC1=C(/C=C/C(C)=C/C=C/C(C)=C\C(=O)O)C(C)(C)CCC1 [13-cis retinoic acid] | – | – | – | – | – | – | ~50 | several hours | not observed | quickly returned to baseline values | increased dramatically | significantly reduced
CC1=C(/C=C/C(C)=C/C=C/C(C)=C/CO)C(C)(C)CCC1 [atROL, all-trans retinol] | – | – | – | – | – | binds to TTR | – | – | – | – | – | –
